Among the data in US6677473B1, “Plasminogen activator inhibitor antagonists” (Corvas International INC, priority 1999, dated 2004) are IC50 values, retold here.

The target in the experiment is T1, Human recombinant PAI-1 (Homo sapiens, UniProt P05121).
T1 construct: made in house; host or cells: E. coli
T1 sequence (P05121 24-402): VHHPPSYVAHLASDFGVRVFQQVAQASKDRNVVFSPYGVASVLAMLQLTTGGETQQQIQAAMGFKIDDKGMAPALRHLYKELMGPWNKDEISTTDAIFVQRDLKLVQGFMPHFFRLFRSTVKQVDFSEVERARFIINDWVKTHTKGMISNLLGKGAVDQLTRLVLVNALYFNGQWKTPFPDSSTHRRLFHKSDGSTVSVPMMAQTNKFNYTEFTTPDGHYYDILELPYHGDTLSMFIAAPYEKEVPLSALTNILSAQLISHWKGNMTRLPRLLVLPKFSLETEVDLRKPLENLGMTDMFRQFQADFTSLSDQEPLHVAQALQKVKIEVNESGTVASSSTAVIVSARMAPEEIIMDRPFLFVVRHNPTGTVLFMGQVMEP
Description: Chromogenic assay for plasminogen activator inhibitor type-1 (PAI-1) antagonism (tPA / glu-plasminogen / Spectrozyme PL, OD405). In kind it is biochemical. The conditions noted are these: determined by comparison with control reactions; assay variant (#1-#4) not given; read-out: IC50 for PAI antagonist activity. The method, then: PAI-1 antagonist assays were performed in a buffer containing Tris, 0.05 mol/L, pH 7.4, 100 mmol/L NaCl, 1 mmol/L EDTA, and 0.01% Tween 80. Human recombinant PAI-1 purified from E coli. and human recombinant tPA were diluted into this standard assay buffer at concentrations of approximately 500-600 ng/mL and 100 ng/mL, respectively. PAI-1 antagonists were dissolved first in DMSO at a concentration of approximately 5 mg/mL, and these solutions were then diluted into the standard reaction buffer to achieve a final compound concentration of 1 mg/mL. Native, purified human glu-plasminogen was purchased from Boehringer Mannheim and was supplied as a lyophilized powder, which was first reconstituted in sterile water to a concentration of 55 μmol/L and then diluted to a concentration of 0.825 μmol/L in standard assay buffer. The chromogenic substrate Spectrozyme PL (H—D-Norleucyl-hexahydrotyrosyl-lysine-p-nitroanilide, American Diagnostica) was prepared as a stock solution with a concentration of 2.5 mmol/L in sterile water. Human fibrin monomer (DESAFIB) was purchased from American Diagnostica and was supplied as a lyophilized powder, which was reconstituted in standard assay buffer at a concentration of 100 μg/mL.
The chromogenic assay utilized the reagents described above. Fresh reagent solutions were prepared prior to each assay. Assays were performed in individual wells of standard 96 well mocrotiter assay plates. Standard assays were prepared as follows:
The following reagents were combined:
The plate was agitated or the individual 25 μL mixtures were pipetted up and down once or twice to assure proper mixing of reagents. The resulting mixture was incubated 15 minutes at room temperature (approximately 21° C.).
The following was added to each reaction:
The microtiter assay plate was then placed into a Molecular Devices Thermomax or Spectromax Plate Reader, agitated to assure thorough mixing of reagents, and incubated at 37° C. The OD405 of each reaction mixture is measured every minute for 1 hour. Control reactions which lack PAI-1; PAI-1 and test compound; t-PA; or t-PA, PAI-1 and test compound were performed in each assay.
Assay #2 was performed exactly as assay #1 except that a 10 minute preincubation of the test compound and PAI-1 was performed at room temperature prior to the addition of t-PA.
Assay #3 was performed exactly as assay #1 except that a wide range of concentrations of each test compound, depending upon the potency of the individual compound, was used in the assay.
Assay #4 was performed exactly as assay #2 except that a wide range of concentrations of each test compound, depending upon the potency of the individual compound, was used in the assay.
The generated plasmin cleaved the chromogenic substrate, Spectrozyme PL, producing pNA (para-nitroaniline). The pNA was detected spectrophotometrically at 405 nm.
The degree of inhibition at various concentrations and/or the IC50 value for the compounds provided herein was determined by comparison with control reactions. The IC50 for PAI antagonist activity for each of the compounds specifically disclosed herein has been measured.
As to `O=C(C(=O)c1cc(I)c(O)c(I)c1)c1cc(I)c(O)c(I)c1` [1,2-bis-(4-hydroxy-3,5-diiodophenyl)ethane-1,2-dione], the IC50 was less than 50 µM. Turning to `O=C(O)c1cc(I)c(OCc2ccc(I)cc2)c(I)c1` [3,5-diiodo-4-(4-iodobenzyloxy)benzoic acid], the IC50 was less than 10 µM. In the case of `O=C(c1cc(I)c(O)c(I)c1)c1cc(I)c(O)c(I)c1` [bis(4-hydroxy-3,5-diiodophenyl)methanone], the IC50 was less than 50 µM. With `O=C(O)CCCCCCCCCCOc1c(I)cc(C(=O)O)cc1I` [4-(10-carboxydecyloxy)-3,5-diiodobenzoic acid] the figure was less than 50 µM; with `O=C(O)CCc1cc(I)c(OCc2ccc(I)cc2)c(I)c1` [3-[3,5-diiodo-4-(4-iodobenzyloxy)phenyl]propionic acid], less than 10 µM; with `O=C(O)c1cc(I)c(OCc2c(F)cccc2F)c(I)c1` [4-(2,6-difluorobenzyloxy)-3,5-diiodobenzoic acid], less than 100 µM. As for `O=C(O)COc1c(I)cc(C(=O)c2cc(I)c(O)c(I)c2)cc1I` [[4-(4-hydroxy-3,5-diiodobenzoyl)-2,6-diiodophenoxy]acetic acid], the half-inhibitory concentration (IC50) was less than 100 µM. Take `O=C(c1cc(I)c(O)c(I)c1)c1cc(I)c(OCc2cccc(I)c2)c(I)c1` [[3,5-diiodo-4-(3-iodobenzyloxy)phenyl]-(4-hydroxy-3,5-diiodophenyl)methanone]: the IC50 was less than 10 µM. The same measure for `O=C(c1ccccc1)c1cc(I)c(O)c(I)c1` [(4-hydroxy-3,5-diiodophenyl)-phenyl-methanone]: less than 100 µM; for `Cc1ccccc1COc1c(I)cc(C(=O)O)cc1I` [3,5-diiodo-4-(2-methylbenzyloxy)benzoic acid]: less than 50 µM.

One may read the IC50 as the concentration at which inhibition is half-maximal.
